# Test results taken from patent US20260028365A1 (BIOGEN MA INC., priority 2022, published 2026).
# Read-outs that look alike come from different tables or passages of the source.
# Tests used:
# [1] = target: Tyk2 (Homo sapiens (Human), UniProt P29597); assay: pSTAT4 Cell Assay (MSD, NK92 cells); type: cell-based
# [2] = target: JH2 domain of human Tyk2 (Homo sapiens (Human), UniProt P29597); assay: JH2 Biochemical Assay (TR-FRET probe displacement); type: binding
# [3] = target: JAK2 (Homo sapiens (Human), UniProt O60674); assay: pSTAT5 Cell Assay (MSD, TF1 cells); type: cell-based
# Sequence of JAK2 (O60674 whole entry): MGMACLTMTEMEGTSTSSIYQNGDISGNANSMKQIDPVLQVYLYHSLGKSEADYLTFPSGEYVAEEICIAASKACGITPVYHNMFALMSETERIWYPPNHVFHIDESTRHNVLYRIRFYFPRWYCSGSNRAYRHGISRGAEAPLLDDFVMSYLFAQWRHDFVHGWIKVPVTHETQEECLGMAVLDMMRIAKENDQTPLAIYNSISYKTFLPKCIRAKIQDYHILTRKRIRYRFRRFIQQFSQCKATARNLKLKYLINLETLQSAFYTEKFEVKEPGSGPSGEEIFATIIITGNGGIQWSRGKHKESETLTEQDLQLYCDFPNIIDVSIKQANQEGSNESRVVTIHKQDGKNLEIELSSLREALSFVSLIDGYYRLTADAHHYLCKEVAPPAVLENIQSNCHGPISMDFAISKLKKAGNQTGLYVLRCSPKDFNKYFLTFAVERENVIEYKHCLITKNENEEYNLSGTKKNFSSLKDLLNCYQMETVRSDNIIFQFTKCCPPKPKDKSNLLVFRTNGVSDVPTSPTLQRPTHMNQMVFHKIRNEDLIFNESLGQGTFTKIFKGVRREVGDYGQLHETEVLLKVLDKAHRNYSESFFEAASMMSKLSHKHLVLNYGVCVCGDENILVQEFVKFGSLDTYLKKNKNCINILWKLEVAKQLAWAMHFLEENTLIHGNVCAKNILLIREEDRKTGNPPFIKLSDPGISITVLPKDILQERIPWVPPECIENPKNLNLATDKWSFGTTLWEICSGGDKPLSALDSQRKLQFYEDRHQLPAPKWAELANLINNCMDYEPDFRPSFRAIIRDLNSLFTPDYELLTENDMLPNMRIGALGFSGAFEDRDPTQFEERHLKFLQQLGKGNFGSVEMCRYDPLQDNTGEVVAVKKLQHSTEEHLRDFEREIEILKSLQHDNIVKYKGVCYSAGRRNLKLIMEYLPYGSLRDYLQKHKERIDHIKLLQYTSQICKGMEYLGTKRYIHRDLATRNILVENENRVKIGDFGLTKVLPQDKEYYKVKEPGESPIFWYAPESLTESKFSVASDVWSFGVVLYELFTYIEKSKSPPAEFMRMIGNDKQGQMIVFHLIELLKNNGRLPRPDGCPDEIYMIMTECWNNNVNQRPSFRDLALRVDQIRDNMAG
# How it was run: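 Serum-starved TF1 cells were pretreated with compound for 1 h (10-point four-fold series from 10 μM), then stimulated with 30 ng/mL IL-3 for 15 min. pSTAT5 in lysates was measured by MSD immunoassay. IC50 came from a 4-parameter logistic fit.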
# [4] = target: JAK1 (Homo sapiens (Human), UniProt P23458); assay: pSTAT3 Cell Assay (MSD, TF1 cells); type: cell-based
# Sequence of JAK1 (P23458 whole entry): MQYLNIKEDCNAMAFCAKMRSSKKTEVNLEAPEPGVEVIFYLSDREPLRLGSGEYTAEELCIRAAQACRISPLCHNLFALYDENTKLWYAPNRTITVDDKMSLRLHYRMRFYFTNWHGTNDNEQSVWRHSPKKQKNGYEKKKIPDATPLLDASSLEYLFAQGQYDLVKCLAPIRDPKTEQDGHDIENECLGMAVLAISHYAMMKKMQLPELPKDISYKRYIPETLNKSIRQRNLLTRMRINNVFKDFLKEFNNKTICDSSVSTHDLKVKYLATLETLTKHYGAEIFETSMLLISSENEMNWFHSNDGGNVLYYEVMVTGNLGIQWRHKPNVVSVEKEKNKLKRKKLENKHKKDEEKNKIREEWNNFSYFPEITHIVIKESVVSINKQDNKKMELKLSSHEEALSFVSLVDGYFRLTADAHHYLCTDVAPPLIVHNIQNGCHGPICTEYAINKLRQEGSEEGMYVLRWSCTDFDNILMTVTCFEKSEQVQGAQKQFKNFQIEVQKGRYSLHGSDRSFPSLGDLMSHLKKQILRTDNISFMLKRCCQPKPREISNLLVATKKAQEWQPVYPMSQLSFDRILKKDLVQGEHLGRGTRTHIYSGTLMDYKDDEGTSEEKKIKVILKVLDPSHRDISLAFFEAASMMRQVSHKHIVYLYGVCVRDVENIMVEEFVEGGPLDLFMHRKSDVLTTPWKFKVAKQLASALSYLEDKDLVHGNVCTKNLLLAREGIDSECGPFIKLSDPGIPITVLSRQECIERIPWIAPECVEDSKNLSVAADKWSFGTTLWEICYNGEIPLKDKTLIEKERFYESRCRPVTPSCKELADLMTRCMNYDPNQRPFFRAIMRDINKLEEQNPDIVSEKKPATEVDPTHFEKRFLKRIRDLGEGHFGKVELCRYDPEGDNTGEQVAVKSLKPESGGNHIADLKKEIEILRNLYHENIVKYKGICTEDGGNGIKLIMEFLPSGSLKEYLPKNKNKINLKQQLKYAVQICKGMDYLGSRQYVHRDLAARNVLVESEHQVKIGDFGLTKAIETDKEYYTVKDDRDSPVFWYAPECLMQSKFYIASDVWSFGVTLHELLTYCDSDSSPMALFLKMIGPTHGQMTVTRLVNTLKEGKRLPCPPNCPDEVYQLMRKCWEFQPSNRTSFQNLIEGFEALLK
# How it was run: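 IC50 values reflect 4-parameter logistic fits of normalized pSTAT3 signal, measured by MSD in lysed TF1 cells. Cells were serum-starved and treated with compound for 1 h (top concentration 10 μM) before a 15 min IL-6 challenge.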
# [5] = TR-FRET probe displacement, JH2 domain of human Tyk2
# [6] = JH2 domain of human Tyk2, TR-FRET probe displacement
# Sequence of Tyk2 (P29597 whole entry, the tested form may be a part): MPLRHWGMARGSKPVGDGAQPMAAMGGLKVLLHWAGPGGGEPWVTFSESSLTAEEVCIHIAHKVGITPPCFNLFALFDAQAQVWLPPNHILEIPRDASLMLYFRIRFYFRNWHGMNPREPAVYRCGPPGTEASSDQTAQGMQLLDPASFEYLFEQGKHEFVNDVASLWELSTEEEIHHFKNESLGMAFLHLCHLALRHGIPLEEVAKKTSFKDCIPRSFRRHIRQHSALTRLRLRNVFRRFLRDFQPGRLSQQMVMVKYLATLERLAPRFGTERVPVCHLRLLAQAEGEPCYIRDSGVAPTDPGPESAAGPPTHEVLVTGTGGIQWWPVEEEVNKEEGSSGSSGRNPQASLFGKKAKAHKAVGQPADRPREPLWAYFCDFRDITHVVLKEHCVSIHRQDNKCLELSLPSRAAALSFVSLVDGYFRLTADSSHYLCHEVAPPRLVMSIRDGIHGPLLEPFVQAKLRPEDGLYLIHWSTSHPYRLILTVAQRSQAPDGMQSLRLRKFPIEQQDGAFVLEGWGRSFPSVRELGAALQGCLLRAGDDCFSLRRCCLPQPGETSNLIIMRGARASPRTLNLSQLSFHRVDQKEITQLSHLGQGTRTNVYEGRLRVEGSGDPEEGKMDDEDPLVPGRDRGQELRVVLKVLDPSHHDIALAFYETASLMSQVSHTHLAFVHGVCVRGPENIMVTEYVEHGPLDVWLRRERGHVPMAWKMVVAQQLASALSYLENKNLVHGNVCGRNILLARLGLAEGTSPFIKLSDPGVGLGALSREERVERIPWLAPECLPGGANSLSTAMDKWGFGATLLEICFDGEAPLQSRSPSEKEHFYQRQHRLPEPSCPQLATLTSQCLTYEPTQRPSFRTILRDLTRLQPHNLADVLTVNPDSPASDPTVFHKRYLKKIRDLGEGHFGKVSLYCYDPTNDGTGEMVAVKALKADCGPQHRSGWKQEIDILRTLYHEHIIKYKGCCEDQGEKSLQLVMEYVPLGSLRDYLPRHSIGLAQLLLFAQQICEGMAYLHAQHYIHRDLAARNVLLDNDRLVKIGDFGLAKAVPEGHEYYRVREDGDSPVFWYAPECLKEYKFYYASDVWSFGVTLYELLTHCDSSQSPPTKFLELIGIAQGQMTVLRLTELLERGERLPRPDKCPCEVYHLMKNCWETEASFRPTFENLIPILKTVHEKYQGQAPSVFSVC
# Sequence of JH2 domain of human Tyk2 (P29597 575-876): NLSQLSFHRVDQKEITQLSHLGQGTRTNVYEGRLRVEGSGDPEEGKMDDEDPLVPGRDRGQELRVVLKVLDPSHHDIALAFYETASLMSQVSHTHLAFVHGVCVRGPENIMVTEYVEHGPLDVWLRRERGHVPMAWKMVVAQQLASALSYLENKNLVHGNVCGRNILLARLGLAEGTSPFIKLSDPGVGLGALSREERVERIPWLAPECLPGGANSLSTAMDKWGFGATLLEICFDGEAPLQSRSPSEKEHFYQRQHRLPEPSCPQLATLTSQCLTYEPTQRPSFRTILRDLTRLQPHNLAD
SMILES,IC50 ([1]; MSD) [nM],"IC50 [2, 5] [nM]","IC50 ([3]; IL-3 stimulation, MSD) [nM]","IC50 ([4]; IL-6 stimulation, MSD) [nM]","IC50 [2, 6] [nM]","IC50 ([3]; IL-3 stimulated, MSD) [nM]","IC50 ([4]; IL-6 stimulated, MSD) [nM]",IC50 [1] [nM],"IC50 ([2]; TR-FRET probe displacement, JH2 domain) [nM]",IC50 ([3]; IL-3 stimulated) [nM],IC50 ([4]; IL-6 stimulated) [nM]
"CNC(=O)Nc1cc(Nc2cc(C)nc(C(C)(F)F)n2)c(-c2ccn(C)n2)cn1 [Example 289, 1-(4-((2-(1,1-difluoroethyl)-6-methylpyrimidin-4-yl)amino)-5-(1-methyl-1H-pyrazol-3-yl)pyridin-2-yl)-3-methylurea]",≤ 10,≤ 10,≥ 1000,≥ 1000,,,,,,,
"CC(=O)Nc1cc(Nc2cc(C)nc(C(C)(F)F)n2)c(OCC[C@@H](C)F)cn1 [Example 336, (R)-N-(4-((2-(1,1-difluoroethyl)-6-methylpyrimidin-4-yl)amino)-5-(3-fluorobutoxy)pyridin-2-yl)acetamide]",10 to 100,≤ 10,≥ 1000,≥ 1000,,,,,,,
"COCCOc1cnc(NC(C)=O)cc1Nc1cc(OC2CC2)nc(C(C)(F)F)n1 [Example 298, N-(4-((6-cyclopropoxy-2-(1,1-difluoroethyl)pyrimidin-4-yl)amino)-5-(2-methoxyethoxy)pyridin-2-yl)acetamide]",≤ 10,≤ 10,≥ 1000,≥ 1000,,,,,,,
"COc1cc(-c2cnc(NC(C)=O)cc2Nc2ccnc(C(C)(C)F)n2)ncn1 [Example 195, N-(4-((2-(2-fluoropropan-2-yl)pyrimidin-4-yl)amino)-5-(6-methoxypyrimidin-4-yl)pyridin-2-yl)acetamide]",10 to 100,≤ 10,≥ 1000,≥ 1000,,,,,,,
"COc1cnc(NC(C)=O)cc1Nc1cc(O[C@H]2C[C@H](OC)C2)nc(C(C)(F)F)n1 [Example 19, N-(4-((2-(1,1-difluoroethyl)-6-((1r,3r)-3-methoxycyclobutoxy)pyrimidin-4-yl)amino)-5-methoxypyridin-2-yl)acetamide]",10 to 100,≤ 10,≥ 1000,≥ 1000,,,,,,,
"CC(=O)Nc1cc(Nc2cc(C)nc(C(C)(F)F)n2)c(-c2cnn(C)n2)cn1 [Example 227, N-(4-((2-(1,1-difluoroethyl)-6-methylpyrimidin-4-yl)amino)-5-(2-methyl-2H-1,2,3-triazol-4-yl)pyridin-2-yl)acetamide]",≤ 10,≤ 10,≥ 1000,≥ 1000,,,,,,,
"CC(=O)Nc1cc(Nc2cc(C)nc(C(C)(F)F)n2)c(OCC2CC2)cn1 [Example 11, N-(5-(cyclopropylmethoxy)-4-((2-(1,1-difluoroethyl)-6-methylpyrimidin-4-yl)amino)pyridin-2-yl)acetamide]",10 to 100,≤ 10,≥ 1000,≥ 1000,,,,,,,
"COCc1nccc(-c2cnc(NC(C)=O)cc2Nc2cc(C)nc(C(C)(F)F)n2)n1 [Example 661, N-(4-((2-(1,1-difluoroethyl)-6-methylpyrimidin-4-yl)amino)-5-(2-(methoxymethyl)pyrimidin-4-yl)pyridin-2-yl)acetamide]",≤ 10,,,,≤ 10,≥ 1000,≥ 1000,,,,
"CCc1cc(Nc2cc(NC(C)=O)ncc2OCCOC)nc(C(C)(F)F)n1 [Example 20, N-(4-((2-(1,1-difluoroethyl)-6-ethylpyrimidin-4-yl)amino)-5-(2-methoxyethoxy)pyridin-2-yl)acetamide]",≤ 10,≤ 10,≥ 1000,≥ 1000,,,,,,,
"CC(=O)Nc1cc(Nc2cc(C)nc(C(C)(F)F)n2)c(-c2ccc(N(C)C)cn2)cn1 [Example 652, N-(4′-((2-(1,1-difluoroethyl)-6-methylpyrimidin-4-yl)amino)-5-(dimethylamino)-[2,3′-bipyridin]-6′-yl)acetamide]",≤ 10,,,,≤ 10,≥ 1000,≥ 1000,,,,
"COCc1cc(-c2cnc(NC(C)=O)cc2Nc2cc(C)nc(C(C)(F)F)n2)nn1C [Example 757, N-(4-((2-(1,1-difluoroethyl)-6-methylpyrimidin-4-yl)amino)-5-(5-(methoxymethyl)-1-methyl-1H-pyrazol-3-yl)pyridin-2-yl)acetamide]",,,,,,,,≤ 10,≤ 10,≥ 1000,100 to 1000
"CC(=O)Nc1cc(Nc2cc(C)nc(C34COC(C3)C4)n2)c(-c2ccn(C)n2)cn1 [Example 552, N-(4-((2-(2-oxabicyclo[2.1.1]hexan-4-yl)-6-methylpyrimidin-4-yl)amino)-5-(1-methyl-1H-pyrazol-3-yl)pyridin-2-yl)acetamide]",10 to 100,,,,≤ 10,≥ 1000,≥ 1000,,,,
"CC(=O)Nc1cc(Nc2cc(C)nc(C(C)(F)F)n2)c(OC[C@H]2CCCO2)cn1 (single isomer, unassigned) [Example 294, (R)-N-(4-((2-(1,1-difluoroethyl)-6-methylpyrimidin-4-yl)amino)-5-((tetrahydrofuran-2-yl)methoxy)pyridin-2-yl)acetamide or (S)-N-(4-((2-(1,1-difluoroethyl)-6-methylpyrimidin-4-yl)amino)-5-((tetrahydrofuran-2-yl)methoxy)pyridin-2-yl)acetamide]",≤ 10,≤ 10,≥ 1000,≥ 1000,,,,,,,
"CC(=O)Nc1cc(Nc2cc(OC3CC3)nc(C(C)(F)F)n2)c(OC[C@H]2COCCO2)cn1 (single isomer, unassigned) [Example 454, (R)-N-(5-((1,4-dioxan-2-yl)methoxy)-4-((6-cyclopropoxy-2-(1,1-difluoroethyl)pyrimidin-4-yl)amino)pyridin-2-yl)acetamide or (S)-N-(5-((1,4-dioxan-2-yl)methoxy)-4-((6-cyclopropoxy-2-(1,1-difluoroethyl)pyrimidin-4-yl)amino)pyridin-2-yl)acetamide]",≤ 10,,,,≤ 10,≥ 1000,≥ 1000,,,,
"COCCOc1cnc(NC(C)=O)cc1Nc1cc(C(C)C)nc(C(C)(F)F)n1 [Example 300, N-(4-((2-(1,1-difluoroethyl)-6-isopropylpyrimidin-4-yl)amino)-5-(2-methoxyethoxy)pyridin-2-yl)acetamide]",≤ 10,≤ 10,≥ 1000,≥ 1000,,,,,,,
"COCc1cccc(-c2cnc(NC(C)=O)cc2Nc2cc(C)nc(C(C)(F)F)n2)n1 [Example 636, N-(4′-((2-(1,1-difluoroethyl)-6-methylpyrimidin-4-yl)amino)-6-(methoxymethyl)-[2,3′-bipyridin]-6′-yl)acetamide]",≤ 10,,,,≤ 10,≥ 1000,≥ 1000,,,,
"[2H]C([2H])([2H])C([2H])([2H])Oc1cnc(NC(C)=O)cc1Nc1cc(OC2CC2)nc(C(C)(F)F)n1 [Example 489, N-(4-((6-cyclopropoxy-2-(1,1-difluoroethyl)pyrimidin-4-yl)amino)-5-(ethoxy-d5)pyridin-2-yl)acetamide]",≤ 10,,,,≤ 10,≥ 1000,≥ 1000,,,,
